Laboratory results taken from patent US20100260716A1, “COMPOUNDS FOR TREATING DEM[…]” (UCB PHARMA GMBH, priority 2007, published 2010).

Assays:
[1] = tested on: acute EAE induced by MBP/CFA; assay: Acute experimental allergic encephalomyelitis (EAE) rat model; type: in vivo, female Lewis rats; conditions: days 0-21, vehicle-treated animals onset at day 9, significantly postponed
Procedure: EAE is induced in female Lewis rats on day zero of the study by a single inoculum injection of myelin basic protein (MBP) and complete Freund's adjuvant (CFA) containing heat killed Mycobacterium tuberculosis F137 Ra at a concentration of 4 mg/ml (MD Biosciences Ltd, Israel). This MBP/CFA encephalitogenic emulsive inoculum (100 μg MBP+200 μg CFA) is injected at a total dose volume of 100 μl/animal, delivered as 2×50 subcutaneous bilateral injections into the intraplanar paw regions.
Lacosamide is administered by intraperitoneal (i.p.) injection twice daily (b.i.d.) on days 0-21 of the study, in a volume of 10 ml/kg at daily doses of 6, 20 and 60 mg/kg. A vehicle control containing no lacosamide is administered by the same route and at the same frequency.
The duration of the study is 21 days. Careful clinical examinations are carried out and recorded at least once daily in addition to EAE clinical scoring and assessment. […]
Initially, all animals are examined for signs of any neurological responses and symptoms prior to EAE induction (day 0) and thereafter examined on a daily basis through the entire 21-day observation period. To avoid experimental bias, EAE reactions are determined in a blinded fashion, as much as possible, by a staff member unaware of the specific treatment applied. […]

[2] = biological target: collapsin response mediator protein 2 (CRMP-2) (Homo sapiens, UniProt Q16555); conditions: statement quoted from poster, Stoehr et al., November 2006; cited from earlier work

COC[C@@H](NC(C)=O)C(=O)NCc1ccccc1 [lacosamide, (R)-2-acetamido-N-benzyl-3-methoxypropionamide]
Disease onset (day after EAE induction) ([1]; 10 mg/kg b.i.d. i.p.): 12 days | Disease onset (day after EAE induction) ([1]; 30 mg/kg b.i.d. i.p.): 12 days | Effect on CRMP-2 and on the effects of neurotrophic factors on axon growth [2]: modulates CRMP-2 and as a consequence attenuates the effects of neurotrophic factors on axon growth
